Earlier results as cited in patent US5395974A, “Lewis acid catalyzed ammonolysis of nylon” (E. I. Du Pont de Nemours and Company, priority 1994, dated 1995).

Conditions: values in square brackets in the text

O=C(O)C(F)(F)F [CF3 CO2 --]
pKa of the conjugate acid of the anion: 0.2
